Reference: patent US20240059691A1 (KALVISTA PHARMACEUTICALS LIMITED, priority 2020, published 2024)
pIC50: −log10 of the molar value.

Tests used:
Human Factor XIIa = Human Factor XIIa (Homo sapiens (Human), UniProt P00748); assay: Determination of FXIIa inhibition (fluorogenic substrate H-DPro-Phe-Arg-AFC, IC50 assay); format: biochemical; details: substrate H-DPro-Phe-Arg-AFC at Km, 25° C.; class scale A-G
Procedure, shortened: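 Human FXIIa incubated at 25° C with fluorogenic substrate H-DPro-Phe-Arg-AFC at its Km concentration and varying compound concentrations. Fluorescence release monitored over 5 min at 25° C; linear rate expressed as % of uninhibited activity to derive IC50.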

Plasma Kallikrein = Plasma Kallikrein (Homo sapiens (Human), UniProt P03952); assay: Determination of related protease inhibition: Plasma Kallikrein (fluorogenic substrate at Km); format: biochemical; details: 25° C., read-out: IC50 (human PKal)
Sequence of Plasma Kallikrein (P03952 391-638): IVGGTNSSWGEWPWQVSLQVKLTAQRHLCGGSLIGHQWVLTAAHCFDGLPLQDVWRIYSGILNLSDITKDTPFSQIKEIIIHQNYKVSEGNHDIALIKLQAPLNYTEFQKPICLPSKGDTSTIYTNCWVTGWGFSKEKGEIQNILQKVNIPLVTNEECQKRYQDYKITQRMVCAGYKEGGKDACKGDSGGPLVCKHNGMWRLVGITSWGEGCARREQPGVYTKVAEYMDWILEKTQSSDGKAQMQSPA
Sequence of Plasma Kallikrein (P03952 20-390 partner): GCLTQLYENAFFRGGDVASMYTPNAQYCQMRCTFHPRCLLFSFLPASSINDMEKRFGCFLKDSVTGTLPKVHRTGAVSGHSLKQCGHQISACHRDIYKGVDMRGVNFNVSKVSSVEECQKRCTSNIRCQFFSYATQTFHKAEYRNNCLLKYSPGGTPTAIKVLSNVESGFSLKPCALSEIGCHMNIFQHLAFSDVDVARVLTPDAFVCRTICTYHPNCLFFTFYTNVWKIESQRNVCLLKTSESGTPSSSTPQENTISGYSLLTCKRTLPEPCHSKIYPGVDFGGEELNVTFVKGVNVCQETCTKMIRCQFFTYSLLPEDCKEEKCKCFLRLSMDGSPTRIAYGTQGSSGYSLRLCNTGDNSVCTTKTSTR
Protocol: Determination of Related Protease Inhibition
In vitro inhibition of related proteases was determined using an ([…] assay based on standard literature methods (see e.g. Shori et al., Biochem. Pharmacol., 1992, 43, 1209; Bouckaert et al., European Journal of Medicinal Chemistry 110 (2016) 181). Human serine protease enzymes Plasma Kallikrein, KLK1, FXa, Plasmin, Thrombin and Trypsin were assayed for enzymatic activity using an appropriate fluorogenic substrate at Km concentration, FXIa at fixed substrate concentration of 100 μM, and various concentrations of the test compound. Protease activity was measured by monitoring the accumulation of liberated fluorescence from the substrate over […]. The linear rate of fluorescence increase per minute was expressed as percentage (%) activity. IC50 values were calculated as the concentration of inhibitor giving 50% inhibition of the uninhibited enzyme activity (100%).

Sequence of Human Factor XIIa (P00748 373-615): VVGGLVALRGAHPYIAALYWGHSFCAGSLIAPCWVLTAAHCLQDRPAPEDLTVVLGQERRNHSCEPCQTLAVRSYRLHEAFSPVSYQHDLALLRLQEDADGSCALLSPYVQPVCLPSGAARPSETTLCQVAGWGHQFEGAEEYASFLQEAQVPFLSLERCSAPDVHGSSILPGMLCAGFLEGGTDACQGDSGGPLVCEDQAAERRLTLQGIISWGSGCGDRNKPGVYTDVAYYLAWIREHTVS

Structure (SMILES) | pIC50 (Human Factor XIIa) | pIC50 (Plasma Kallikrein)
Nc1nccc2c(NCc3ccc(N4CC5(CC(O)c6nccn65)C4)cc3)cccc12 (stereo not shown) [Example 2253, 1-(4-(((1-aminoisoquinolin-5-yl)amino)methyl)phenyl)-6′,7′-dihydrospiro[azetidine-3,5′-pyrrolo[1,2-a]imidazol]-7′-ol] | 5.00 to 5.52 | < 4.40
CN1CCC(CNc2ccc(CNc3nccc4[nH]ccc34)cn2)CC1 [Example 1223, N-((6-(((1-methylpiperidin-4-yl)methyl)amino)pyridin-3-yl)methyl)-1H-pyrrolo[3,2-c]pyridin-4-amine] | 4.00 to 4.40 | < 4.40
CN1CCC(COc2cc(CNc3cnc4[nH]cc(C#N)c4c3)ccn2)CC1 [Example 4460] | 4.00 to 4.40 | < 4.00
Nc1nccc2c(NCc3cnc(NCCC(=O)N4CCCC4)nc3)cccc12 [Example 1039, 3-[(5-{[(1-aminoisoquinolin-5-yl)amino]methyl}pyrimidin-2-yl)amino]-1-(pyrrolidin-1-yl)propan-1-one] | 4.40 to 5.00 | < 4.40
Cc1cn2c(n1)CC(COc1cc(CNc3cccc4c(N)nccc34)ccn1)CC2 (single isomer, unassigned) [Example 4447, (R*)-N5-((2-((2-methyl-5,6,7,8-tetrahydroimidazo[1,2-a]pyridin-7-yl)methoxy)pyridin-4-yl)methyl)isoquinoline-1,5-diamine] | 6.00 to 6.52 | 5.00 to 5.52
CN1CCC(CNc2ccc(CNc3cc(CO)c4cnccc4c3)cn2)CC1 [Example 1211, (6-(((6-(((1-methylpiperidin-4-yl)methyl)amino)pyridin-3-yl)methyl)amino)isoquinolin-8-yl)methanol] | 4.40 to 5.00 | 4.40 to 5.00
CN1CCC(CNc2ccc(CNc3cc(F)c4cnccc4c3)cn2)CC1 [Example 1207, 8-fluoro-N-((6-(((1-methylpiperidin-4-yl)methyl)amino)pyridin-3-yl)methyl)isoquinolin-6-amine] | 4.00 to 4.40 | < 4.00
Nc1ncc(Cl)c2cc(NCc3ccnc(OCC4CCn5c(CO)cnc5C4)c3)ccc12 (stereo not shown) [Example 4448, (7-(((4-(((1-amino-4-chloroisoquinolin-6-yl)amino)methyl)pyridin-2-yl)oxy)methyl)-5,6,7,8-tetrahydroimidazo[1,2-a]pyridin-3-yl)methanol] | 6.00 to 6.52 | < 4.40
Nc1nccc2c(NCc3ccc(N4CCn5ccnc5C4CO)nc3)cccc12 (stereo not shown) [Example 1140, (7-(5-(((1-aminoisoquinolin-5-yl)amino)methyl)pyridin-2-yl)-5,6,7,8-tetrahydroimidazo[1,2-a]pyrazin-8-yl)methanol] | 5.00 to 5.52 | < 4.40
Cc1cn2c(n1)CC(COc1cc(CNc3ccc4c(N)ncc(Cl)c4c3)ccn1)CC2 (stereo not shown) [Example 4309, 4-chloro-6-N-{[2-({2-methyl-5H,6H,7H,8H-imidazo[1,2-a]pyridin-7-yl}methoxy)pyridin-4-yl]methyl}isoquinoline-1,6-diamine] | 6.52 to 7.00 | < 5.40
Nc1ncc(Cl)c2cc(NCc3ccnc(OCC4CCCn5ccnc54)c3)ccc12 (single isomer, unassigned) [Example 4451, (R*)-4-chloro-N6-((2-((5,6,7,8-tetrahydroimidazo[1,2-a]pyridin-8-yl)methoxy)pyridin-4-yl)methyl)isoquinoline-1,6-diamine] | 6.00 to 6.52 | < 4.40
Nc1ncc(Cl)c2cc(NCc3cnc(NCC4CCn5ccnc5C4)nc3)ccc12 (stereo not shown) [Example 1043, 4-chloro-6-N-{[2-({5H,6H,7H,8H-imidazo[1,2-a]pyridin-7-ylmethyl}amino)pyrimidin-5-yl]methyl}isoquinoline-1,6-diamine] | 6.00 to 6.52 | 5.00 to 5.52
Cc1n[nH]c2c1CCC2Nc1ccc(CNc2ccc3c(N)ncc(Cl)c3c2)cn1 (stereo not shown) [Example 1118, 4-chloro-6-N-{[6-({3-methyl-1H,4H,5H,6H-cyclopenta[c]pyrazol-6-yl}amino)pyridin-3-yl]methyl}isoquinoline-1,6-diamine] | 4.40 to 5.00 | < 4.40
Nc1nccc2cc(NCc3ccnc(OCC4CCn5ccnc5C4)c3)ncc12 (stereo not shown) [Example 4429, N6-[[2-(5,6,7,8-tetrahydroimidazo[1,2-a]pyridin-7-ylmethoxy)-4-pyridyl]methyl]-2,7-naphthyridine-1,6-diamine] | 5.52 to 6.00 | 5.00 to 5.52
CNC(=O)c1cc(NCc2ccnc(OCC3CCN(C)CC3)c2)cc2ccncc12 [Example 4463] | 4.00 to 4.40 | < 4.00
CC(C)(O)c1cnc2n1CCN(c1ccc(CNc3cccc4c(N)nccc34)cn1)C2 [Example 1167, 2-(7-(5-(((1-aminoisoquinolin-5-yl)amino)methyl)pyridin-2-yl)-5,6,7,8-tetrahydroimidazo[1,2-a]pyrazin-3-yl)propan-2-ol] | 5.00 to 5.52 | < 4.40

Structure (SMILES) | pIC50 (Human Factor XIIa) | pIC50 (Plasma Kallikrein)
CN1CCN(c2cc(CNc3cccc4c(N)nccc34)ccn2)CC1 [Example 4426, 5-N-{[2-(4-methylpiperazin-1-yl)pyridin-4-yl]methyl}isoquinoline-1,5-diamine] | 4.40 to 5.00 | < 4.40
Nc1ncc(F)c2cc(NCc3ccnc(OCC4CCn5ccnc5C4)c3)ccc12 (stereo not shown) [Example 4307, 4-fluoro-6-N-[(2-{5H,6H,7H,8H-imidazo[1,2-a]pyridin-7-ylmethoxy}pyridin-4-yl)methyl]isoquinoline-1,6-diamine] | 6.00 to 6.52 | < 5.40
CC1c2nccn2CCN1c1ccc(CNc2cccc3c(N)nccc23)cn1 (stereo not shown) [Example 1150, N5-((6-(8-methyl-5,6-dihydroimidazo[1,2-a]pyrazin-7(8H)-yl)pyridin-3-yl)methyl)isoquinoline-1,5-diamine] | 6.00 to 6.52 | < 4.40
COc1ccc(NCc2ccnc(OCC3CCN(C)CC3)c2)c2ccnc(N)c12 [Example 4470, 8-methoxy-N5-((2-((1-methylpiperidin-4-yl)methoxy)pyridin-4-yl)methyl)isoquinoline-1,5-diamine] | 4.40 to 5.00 | < 4.40
Nc1ncc(Cl)c2cc(NCc3ccc(N4CCn5ccnc5C4)nc3)ccc12 [Example 1129, 4-chloro-6-N-[(6-{5H,6H,8H-imidazo[1,2-a]pyrazin-7-yl}pyridin-3-yl)methyl]isoquinoline-1,6-diamine] | 5.00 to 5.52 | < 4.40
CN1CCC(OCc2ccc(CNc3ccc4cc(N)ncc4c3)cc2)CC1 [Example 2188, 7-N-[(4-{[(1-methylpiperidin-4-yl)oxy]methyl}phenyl)methyl]isoquinoline-3,7-diamine] | 4.40 to 5.00 | 4.40 to 5.00
CN1CCC(CNc2ccc(CNc3cnc4nccnc4c3)cn2)CC1 [Example 1189, N-((6-(((1-methylpiperidin-4-yl)methyl)amino)pyridin-3-yl)methyl)pyrido[2,3-b]pyrazin-7-amine] | 4.00 to 4.40 | < 4.40
Nc1nccc2c(NCc3ccc(N4CCn5cnnc5C4)nc3)cccc12 [Example 1276, N5-((6-(5,6-dihydro-[1,2,4]triazolo[4,3-a]pyrazin-7(8H)-yl)pyridin-3-yl)methyl)isoquinoline-1,5-diamine] | 5.52 to 6.00 | < 4.40
CN1CCC(CNc2ccc(CNc3c(F)cnc4[nH]ccc34)cn2)CC1 [Example 1206, 5-fluoro-N-((6-(((1-methylpiperidin-4-yl)methyl)amino)pyridin-3-yl)methyl)-1H-pyrrolo[2,3-b]pyridin-4-amine] | 4.00 to 4.40 | < 4.00
CN1CCC(CNc2ccc(CNc3cc4ccnc(N)c4cn3)cn2)CC1 [Example 1196, N6-((6-(((1-methylpiperidin-4-yl)methyl)amino)pyridin-3-yl)methyl)-2,7-naphthyridine-1,6-diamine] | 5.52 to 6.00 | 5.00 to 5.52
CC(C)(O)C1CN(c2ccc(CNc3cccc4c(N)nccc34)cn2)Cc2nccn21 (stereo not shown) [Example 1135, 2-(7-(5-(((1-aminoisoquinolin-5-yl)amino)methyl)pyridin-2-yl)-5,6,7,8-tetrahydroimidazo[1,2-a]pyrazin-5-yl)propan-2-ol] | 5.00 to 5.52 | < 4.40
CN1CCC(CNc2ccc(CNc3ccc4cccnc4c3)cn2)CC1 [Example 1184, N-((6-(((1-methylpiperidin-4-yl)methyl)amino)pyridin-3-yl)methyl)quinolin-7-amine] | 4.40 to 5.00 | < 4.00
CN1CCC(CNc2ccc(CNc3cc(C#N)cc4[nH]ccc34)cn2)CC1 [Example 1256] | 4.40 to 5.00 | < 4.40
Cc1cnc2[nH]ccc2c1NCc1ccc(NCC2CCN(C)CC2)nc1 [Example 1205, 5-methyl-N-((6-(((1-methylpiperidin-4-yl)methyl)amino)pyridin-3-yl)methyl)-1H-pyrrolo[2,3-b]pyridin-4-amine] | 4.40 to 5.00 | < 4.00
CN1CCC(Oc2ccc(CNc3ccc4ccnc(N)c4c3)cc2)CC1 [Example 1003, N7-(4-((1-methylpiperidin-4-yl)oxy)benzyl)isoquinoline-1,7-diamine] | 5.00 to 5.52 | 4.40 to 5.00
Cc1cnc2n1CCC(COc1cc(CNc3cccc4c(N)nccc34)ccn1)C2 (single isomer, unassigned) [Example 4445, (R*)-N5-((2-((3-methyl-5,6,7,8-tetrahydroimidazo[1,2-a]pyridin-7-yl)methoxy)pyridin-4-yl)methyl)isoquinoline-1,5-diamine] | 6.52 to 7.00 | 5.00 to 5.52
